# Measurements taken from patent US20090143452A1, “Use of prochloraz for wood protection” (priority 2005, published 2009).
# Entries after “also recorded” stand apart in the source; their conditions may differ.
# Tests used:
# soft-rot fungi = assay: Activity against soft rot, test based on ENV 807 (reduction in mass of treated Pinus sylvestris wood samples); conditions: for Activity against soft-rot fungi in the test according to ENV 807 (in words): 0.3% active compound where stated; for Reduction in mass in % (mean): Pinus sylvestris specimens vacuum drenched with 0.3% active compound solution, ageing per EN 84, 20 weeks incubation
# Description: The activity of prochloraz and of a copper/chromate preparation and tebuconazole, 3-iodo-2-propynyl butylcarbarbamate (IPBC) and imazalil was determined in a test based on ENV 807 (12/2001). To this end, test specimens of the wood type Pinus sylvestris of a size of 40×15×4 mm were vacuum drenched with 0.3 and 0.4% strength active compound solutions and conditioned for 14 days. This was followed by accelerated ageing according to EN 84.
# Subsequently, the wood samples were placed on a malt agar medium according to EN 113 and inoculated with a spore suspension according to ENV 807. After 20 weeks of incubation, the reduction in mass of the wood samples treated was determined.
# blueing fungi = conditions: J. A. Drysdale et al., New Zealand Journal of Forestry Science 1982; cited from earlier work
smiles,measurement,setting,value
"CCCCNC(=O)OCC#CI [IPBC, 3-iodo-2-propynyl butylcarbarbamate]",Activity against soft-rot fungi in the test according to ENV 807 (in words),soft-rot fungi,entirely insufficient activity; also recorded: insufficiently active
same,Reduction in mass in % (mean),soft-rot fungi,>4%
"C=CCOC(Cn1ccnc1)c1ccc(Cl)cc1Cl (stereo not shown) [Imazalil, imazalil]",Activity against soft-rot fungi in the test according to ENV 807 (in words),soft-rot fungi,entirely insufficient activity; also recorded: insufficiently active
same,Reduction in mass in % (mean),soft-rot fungi,>4%
"CCCN(CCOc1c(Cl)cc(Cl)cc1Cl)C(=O)n1ccnc1 [Prochloraz, N-propyl-N-[2-(2,4,6-trichlorophenoxy)ethyl]imidazole-1-carboxamide]",Activity against blueing fungi (in words),blueing fungi,insufficiently active
same,Activity against soft-rot fungi in the test according to ENV 807 (in words),soft-rot fungi,broad activity
same,Activity against soft-rot fungi in the test according to ENV 807 (in words),soft-rot fungi; listed as prochloraz,excellent activity; also recorded: effect comparable to that of the 0.4% strength copper/chromium standard
same,Reduction in mass in % (mean),soft-rot fungi,<2%
"CC(C)(C)C(O)(CCc1ccc(Cl)cc1)Cn1cncn1 (stereo not shown) [Tebuconazole, tebuconazole]",Activity against soft-rot fungi in the test according to ENV 807 (in words),soft-rot fungi,insufficiently active
same,Reduction in mass in % (mean),soft-rot fungi,>4%
